Assay results published in patent US20070202079A1, “Therapeutic compositions and methods useful in modulating protein tyrosine phosphatases” (priority 2006, published 2007).

What was measured:
SHP-1 = target: T1, SHP-1 (Mus musculus, UniProt P29351); test: in vitro PTPase assay, GST/SHP-1; type: biochemical; settings: for inhibitory activity against SHP-1: 3-4 μg/ml or 10-100 μg/ml
T1 construct: made in house
Method: In vitro PTPase activities were measured using the commercial protein tyrosine phosphatase assay kit (Upstate Biotechnology, Inc. (“UBI”)) following established procedure known to one of skill in the art. […] Briefly, 0.01 μg of GST/PTPase fusion proteins was incubated in 50 μl of Tris buffer (10 mM Tris, pH 7.4) containing different concentrations of inhibitors or chemicals (0-1,000 μg/ml) at 22° C. for 10 minutes, followed by addition of 0.2 mM of the phosphotyrosine peptide and incubation at 22° […] 100 μl of Malachite Green solution was added and incubated for 5 minutes, and the absorbance at 660 nm was measured after 5 minutes.
To assess the reversibility of inhibition of SHP-1 by PTPase inhibitors, GST/SHP-1 fusion protein bound on glutathione beads were pre-incubated in cold Tris buffer or Tris buffer containing the PTPase inhibitors at 4° C. for 30 minutes. The beads were then either subjected to in vitro PTPase assays or washed 3 times in Tris buffer then subjected to in vitro PTPase assays.
Briefly, individual PTPases (0.1 μg/reaction) in 50 μL of PTPase buffer (50 mM Tris, pH 7.4) were incubated at 22° C. for 10 minutes or as indicated in the absence or presence of inhibitory compounds. Substrates (0.2 mM phosphotyrosine peptide) were then added and allowed to react at 22° C. for 18 hrs. PTPase activity of individual reactions was measured by adding 100 μL of malachite green solution (UBI) and then quantifying the amounts of free phosphate cleaved by the PTPase from the peptide substrate by spectrometry (OD660 nm). […] Relative PTPase activities were calculated based on the formula: (PTPase activity in the presence of an inhibitory compound/PTPase activity in the absence of the compound)× 100%. To assess the reversibility of PTPase inhibition, GST fusion proteins of the PTPases bound on glutathione beads (Pharmacia) were pre-incubated with cold Tris buffer (50 mM Tris, pH 7.0) or Tris buffer containing the inhibitor at 4° C. for 30 minutes. The beads were then washed three times in cold Tris buffer or not washed prior to subjecting to in vitro PTPase assays.

PRL-3 = target: T2, PRL-3 (Homo sapiens, UniProt O75365); test: in vitro PTPase assay, recombinant PRL-3; type: biochemical; settings: for remaining PRL-3 PTPase activity: 0.1-100 μg/ml
T2 construct: cDNAs of human PRL-1, PRL-2 and PRL-3 coding region were derived by RT-PCR; made in house; host or cells: DH5a bacteria (E. coli)
T2 sequence (O75365 whole entry): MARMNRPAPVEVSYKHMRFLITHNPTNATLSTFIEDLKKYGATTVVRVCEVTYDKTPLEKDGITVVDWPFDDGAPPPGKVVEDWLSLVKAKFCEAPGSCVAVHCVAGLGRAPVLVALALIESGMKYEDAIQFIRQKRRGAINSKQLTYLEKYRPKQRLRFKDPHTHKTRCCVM
Description: Sodium stibogluconate, suramin, sodium orthovanadate and GST fusion protein of SHP-1 have been described previously (Pathak et al., J. Immunol. 167, 3391 (2001)). Meglumine antimonate was obtained from Aventis. cDNAs of human PRL-1, PRL-2 and PRL-3 coding region were derived by RT-PCR from H9 cells (Safai, et al., Lancet 1, 1438 (1984)) and inserted in frame into the pGEX vector. cDNA of PRL-1R86 was generated by recombinant DNA technique using PRL-1 cDNA as template following established procedures (Jiao, et al., Mol. Cell. Biol. 16, 6985 (1996)). GST fusion proteins of the PRL phosphatases were prepared from DH5a bacteria transformed with the pGEX fusion protein constructs as described previously (Yi, et al., Mol. Cell. Biol. 12, 836 (1992)). cDNAs encoding the PRLs tagged at the N-termini with the Flag epitope (Castrucci, et al., J. Virol. 66, 4647 (1992)) were generated via recombinant DNA technique, sequenced to confirm their identities and cloned into the pBabepuro vector (Yang, et al., Blood 91, 3746 (1998)). Anti-Flag monoclonal antibody (M2, Sigma) was purchased from a commercial source. A synthetic phosphotyrosine peptide (Arg-Arg-Leu-Ile-Glu-Asp-Ala-Gle-Tyr-Al- -a-Ala-Arg-Gly (SEQ ID NO: 3), wherein the tyrosine is phosphorylated; UBI) and DiFMUP (6, 8-difluoro-4-methylumbelliferyl phosphate, Molecular Probes) were purchased as substrates for PTPase assays.
In vitro PTPase assays were used to determine the effects of compounds on recombinant PTPases, following established procedures using a synthetic phosphotyrosine peptide or DiFMUP as the substrate (Pathak et al., J. Immunol. 167, 3391 (2001)). Briefly, individual PTPases (0.1 μg/reaction) in 50 μL of PTPase buffer (50 mM Tris, pH 7.4) were incubated at 22° C. for 10 minutes or as indicated in the absence or presence of inhibitory compounds. Substrates (0.2 mM phosphotyrosine peptide) were then added and allowed to react at 22° C. for 18 hrs. PTPase activity of individual reactions was measured by adding 100 μL of malachite green solution (UBI) and then quantifying the amounts of free phosphate cleaved by the PTPase from the peptide substrate by spectrometry (OD660 nm). PTPase assays using DiFMUP as a substrate were conducted following a previously described procedure (Matter, et al., Biochem. Biophys. Res. Comm. 283, 1061 (2001)). Relative PTPase activities were calculated based on the formula: (PTPase activity in the presence of an inhibitory compound/PTPase activity in the absence of the compound)× 100%. To assess the reversibility of PTPase inhibition, GST fusion proteins of the PTPases bound on glutathione beads (Pharmacia) were pre-incubated with cold Tris buffer (50 mM Tris, pH 7.0) or Tris buffer containing the inhibitor at 4° C. for 30 minutes. The beads were then washed three times in cold Tris buffer or not washed prior to subjecting to in vitro PTPase assays.

MDA231 = MDA231 cell growth, MTT; type: cell-based, human; settings: 50 μg/ml, day 6 culture
Method: For cell proliferation assays, cells were grown in 10% FCS culture medium containing various amounts of IFNs and/or sodium stibogluconate in 96 well plates and cultured at 37° C. for 3 or 6 days as indicated. The numbers of viable cells in proliferation assays were determined by MTT assays as described in Phatak et al., J. Immunol. 167, 3391 (2001).

PRL-1 = target: T3, PRL-1 (Homo sapiens, UniProt Q93096); test: in vitro PTPase assay, recombinant PRL-1; type: biochemical; settings: 0.1-100 μg/ml
T3 construct: cDNAs of human PRL-1, PRL-2 and PRL-3 coding region were derived by RT-PCR; made in house; host or cells: DH5a bacteria (E. coli)
T3 sequence (Q93096 whole entry): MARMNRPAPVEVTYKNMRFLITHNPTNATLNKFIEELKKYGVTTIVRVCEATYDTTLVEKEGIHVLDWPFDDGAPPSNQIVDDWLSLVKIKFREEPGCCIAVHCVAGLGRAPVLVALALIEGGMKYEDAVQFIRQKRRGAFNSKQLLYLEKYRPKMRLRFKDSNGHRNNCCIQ
Description: (§1) Sodium stibogluconate, suramin, sodium orthovanadate and GST fusion protein of SHP-1 have been described previously (Pathak et al., J. Immunol. 167, 3391 (2001)). Meglumine antimonate was obtained from Aventis. cDNAs of human PRL-1, PRL-2 and PRL-3 coding region were derived by RT-PCR from H9 cells (Safai, et al., Lancet 1, 1438 (1984)) and inserted in frame into the pGEX vector. cDNA of PRL-1R86 was generated by recombinant DNA technique using PRL-1 cDNA as template following established procedures (Jiao, et al., Mol. Cell. Biol. 16, 6985 (1996)). […]
(§2) In vitro PTPase assays were used to determine the effects of compounds on recombinant PTPases, following established procedures using a synthetic phosphotyrosine peptide or DiFMUP as the substrate (Pathak et al., J. Immunol. 167, 3391 (2001)). […] PTPase activity of individual reactions was measured by adding 100 μL of malachite green solution (UBI) and then quantifying the amounts of free phosphate cleaved by the PTPase from the peptide substrate by spectrometry (OD660 nm). […] Relative PTPase activities were calculated based on the formula: (PTPase activity in the presence of an inhibitory compound/PTPase activity in the absence of the compound)× 100%. […]

GSTm8 = test: in vitro PTPase assay, GSTm8; type: biochemical; settings: 3-4 μg/ml or 10-100 μg/ml
Description: In vitro PTPase assays were used to determine the effects of levamisole (Sigma), pentamidine (American Pharmaceutical Partners, Inc.), and ketoconazole (Sigma) on recombinant PTPases, following established procedures (Pathak et al., J. Immunol. 167, 3391 (2001); Pathak et al., Leukemia 16, 2285 (2002), Yi et al., J. Immunol. 169, 5978 (2002)) using a synthetic phosphotyrosine peptide or DiFMUP as the substrate as detailed above in section I.A.2.

PRL-2 = target: T4, PRL-2 (Homo sapiens, UniProt Q12974); test: in vitro PTPase assay, recombinant PRL-2; type: biochemical
T4 construct: cDNAs of human PRL-1, PRL-2 and PRL-3 coding region were derived by RT-PCR; made in house; host or cells: DH5a bacteria (E. coli)
T4 sequence (Q12974 whole entry): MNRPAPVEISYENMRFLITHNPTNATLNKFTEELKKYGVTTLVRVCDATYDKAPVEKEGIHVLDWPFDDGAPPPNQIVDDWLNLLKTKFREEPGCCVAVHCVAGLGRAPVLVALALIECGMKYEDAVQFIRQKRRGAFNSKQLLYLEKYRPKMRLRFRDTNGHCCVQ
Description: as §1, §2

T1 sequence (P29351 whole entry): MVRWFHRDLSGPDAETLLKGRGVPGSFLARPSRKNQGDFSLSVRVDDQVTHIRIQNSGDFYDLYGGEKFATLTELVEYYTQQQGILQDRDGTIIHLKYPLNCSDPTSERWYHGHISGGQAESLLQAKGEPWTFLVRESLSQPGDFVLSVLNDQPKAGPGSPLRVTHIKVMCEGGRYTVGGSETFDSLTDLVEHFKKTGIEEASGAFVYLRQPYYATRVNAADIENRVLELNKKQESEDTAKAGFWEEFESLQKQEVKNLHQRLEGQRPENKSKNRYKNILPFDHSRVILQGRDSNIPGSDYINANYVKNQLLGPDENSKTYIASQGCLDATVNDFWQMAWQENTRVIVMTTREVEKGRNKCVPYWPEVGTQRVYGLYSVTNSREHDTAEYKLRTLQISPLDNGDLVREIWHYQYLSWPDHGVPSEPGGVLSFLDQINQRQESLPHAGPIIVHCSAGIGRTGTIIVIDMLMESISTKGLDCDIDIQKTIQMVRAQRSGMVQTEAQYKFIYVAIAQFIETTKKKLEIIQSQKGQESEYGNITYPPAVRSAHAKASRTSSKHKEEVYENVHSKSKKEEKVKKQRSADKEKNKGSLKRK

SMILES	activity of parental mixture against recombinant SHP-1 (SHP-1; Sb concentration of 10 μg/ml)	inhibition of GST/SHP-1 after washing (reversibility) (SHP-1; pre-incubated 30 min at 4 °C, beads washed 3 times)	inhibition of PRL-3 after washing (PRL-3)	inactivation of PRL-3 with prolonged pre-incubation (PRL-3; 10 μg/ml, pre-incubation 30 or 60 minutes)	MDA231 cells, single agent (MDA231)	retained PRL-1 PTPase activity (PRL-1)	inhibitory activity against SHP-1 (SHP-1)	remaining PRL-3 PTPase activity (PRL-3)	inhibitory activity against GSTm8 (GSTm8)	activity against PRL-2 (PRL-2)
O.O.O.O.O.O.O.O.O.O=C([O-])[C@@H]1[O][Sb]2([O-])([O][Sb]34([OH])[O][C@H]([C@H](O)CO)[C@H]([O]3)[C@H](C(=O)[O-])[O]4)[O][C@H]([C@H](O)CO)[C@@H]1[O]2.[Na+].[Na+].[Na+] [sodium stibogluconate]	inactivated SHP-1	not affected by washing	not relieved by a washing process	nearly complete inactivation	killed all cells	–	–	–	–	–
N=C(N)c1ccc(OCCCCCOc2ccc(C(=N)N)cc2)cc1 [pentamidine]	–	–	–	–	–	70-80%	no obvious inhibitory activity	20-30%	no obvious inhibitory activity	not effective
CC(=O)N1CCN(c2ccc(OCC3COC(Cn4ccnc4)(c4ccc(Cl)cc4Cl)O3)cc2)CC1 (stereo not drawn) [ketoconazole]	–	–	–	–	–	60-70%	no obvious inhibitory activity	25-40%	no obvious inhibitory activity	not effective
